The source of these data is ChEMBL document CHEMBL1201862, “PubChem BioAssay data set” (2004).

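Method: 48-hour compound exposure of cells in 96-well plates, five concentrations, linear interpolation of endpoints. GI50 = concentration required for 50% inhibition of growth.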 The source made the active and inactive calls. No stated cut-off is given here; in the data, active = GI50 up to about 1.1 µM and inactive = higher. Where a SMILES comes first, the peptide text is derived from it. [ ]: non-standard residue; d: D form. Phe(4-NO2) = N[CH](Cc1ccc([N+](=O)[O-])cc1)C(=O)O

Test systems include NCI-H226; K562; NCI-H522; SF-539; RXF 393; ACHN; HT-29; OVCAR-4; CAKI-1; NCI/ADR-RES; UACC-257; SF-268; HL-60; MDA-N; Malme-3M; EKVX; UACC-62; NCI-H23; OVCAR-3; MDA-MB-231.
Common to all, as to assay: DTP human tumour cell line panel, 48 h

Broadly, the GI50 is the concentration that inhibits growth by half. Regarding `CCOC(=O)C(C(=O)OCC)=C1NC2(c3ccccc3Nc3ccccc32)C(C#N)S1` (centres undefined), the GI50 in the assay on NCI-H226 is 12 µM (inactive); in the assay on K562 it was 7.53 µM (inactive); with NCI-H522, 13.9 µM (inactive); in the assay with SF-539 it was 11 µM (inactive); with RXF 393, 12.9 µM (inactive); in the assay with ACHN it was 14.9 µM (inactive). For the same compound, the GI50 in the assay on HT-29 was 4.21 µM (inactive); in the assay with OVCAR-4 it was 4.3 µM (inactive); in the assay on CAKI-1, 16.3 µM (inactive); with NCI/ADR-RES it was 10.4 µM (inactive); with UACC-257 it was 12.8 µM (inactive); in the assay with SF-268, 13.5 µM (inactive). Further, the GI50 was 21.9 µM (inactive) in the assay on HL-60; 14.4 µM (inactive) in the assay with MDA-N; 15.3 µM (inactive) in the assay with Malme-3M; 13.7 µM (inactive) in the assay with EKVX; 10.3 µM (inactive) with UACC-62; 4.63 µM (inactive) in the assay on NCI-H23. Further, the concentration for 50% growth inhibition (GI50) with OVCAR-3 is 0.286 µM (active).
For `O=C1c2cccc(NCCNCCO)c2C(=O)c2cccc(NCCNCCO)c21`, the GI50 was 0.998 µM (active) in the assay on NCI-H226; 1.12 µM (active) in the assay with K562; 0.312 µM (active) with NCI-H522; 0.601 µM (active) in the assay on SF-539; 1.59 µM (inactive) in the assay with RXF 393; 2.55 µM (inactive) in the assay on ACHN. The 50% growth inhibitory concentration (GI50) in the assay with HT-29 is 0.52 µM (active); in the assay on OVCAR-4 it was 0.889 µM (active); in the assay with CAKI-1, 0.64 µM (active); with NCI/ADR-RES it was 10.9 µM (inactive); in the assay on UACC-257 it was 3.04 µM (inactive); with SF-268 it was 0.518 µM (active). Moreover, the GI50 was 1.6 µM (inactive) with HL-60; 0.215 µM (active) with MDA-N; 1.82 µM (inactive) in the assay with Malme-3M; 1.78 µM (inactive) with EKVX; 1.81 µM (inactive) in the assay with UACC-62; 1.87 µM (inactive) with NCI-H23. Further, the GI50 in the assay on OVCAR-3 was 1.57 µM (inactive).
Consider `Sc1nn2c(COc3ccc(Cl)cc3)nnc2s1`, for which the GI50 with NCI-H226, in the assay with K562, in the assay with NCI-H522, in the assay on MDA-MB-231, with SF-539 and in the assay on RXF 393 was > 100 µM (inactive) throughout. Moreover, the GI50 in the assay with ACHN, in the assay on HT-29, in the assay with OVCAR-4, with CAKI-1, with NCI/ADR-RES and in the assay on UACC-257 was > 100 µM (inactive) throughout. The GI50 in the assay on SF-268, in the assay with HL-60, with Malme-3M, with EKVX, in the assay with UACC-62 and in the assay on NCI-H23 was > 100 µM (inactive) each time. Besides, the GI50 in the assay on OVCAR-3 is > 100 µM (inactive).
As to `Nc1nc(Cl)cc(NCC2(CO)CC(=O)C2)n1`, the GI50 in the assay on NCI-H226, in the assay on K562, in the assay on NCI-H522, in the assay on MDA-MB-231, in the assay on SF-539 and in the assay on RXF 393 was > 100 µM (inactive) throughout. Further, the GI50 in the assay on ACHN, in the assay with HT-29, in the assay on OVCAR-4, in the assay with CAKI-1, in the assay with NCI/ADR-RES and in the assay with UACC-257 was > 100 µM (inactive) throughout. The GI50 is > 100 µM (inactive) in the assay with SF-268; > 100 µM (inactive) with HL-60; > 100 µM (inactive) in the assay with Malme-3M; 98.6 µM (inactive) in the assay with EKVX; 86.7 µM (inactive) in the assay on UACC-62; > 100 µM (inactive) in the assay with NCI-H23. In addition, the GI50 with OVCAR-3 is > 100 µM (inactive).
Take `O=C(N=C1N(c2ccccc2)C(=O)C(=O)N1c1ccccc1)c1ccccc1`: the GI50 was 12 µM (inactive) in the assay on NCI-H226; 29.2 µM (inactive) with K562; 1.66 µM (inactive) in the assay on NCI-H522; 6.9 µM (inactive) in the assay on MDA-MB-231; 12.6 µM (inactive) in the assay on SF-539; 3.58 µM (inactive) in the assay with RXF 393. For the same compound, the GI50 was 3.78 µM (inactive) in the assay on ACHN; 13.7 µM (inactive) in the assay on HT-29; 2.95 µM (inactive) in the assay with OVCAR-4; 13.5 µM (inactive) with CAKI-1; 11 µM (inactive) in the assay on NCI/ADR-RES; 29.9 µM (inactive) in the assay on UACC-257. The GI50 was 15.1 µM (inactive) in the assay on SF-268; 31.2 µM (inactive) in the assay on HL-60; 17.4 µM (inactive) with Malme-3M; 12.7 µM (inactive) with EKVX; 7.93 µM (inactive) in the assay on UACC-62; 13.6 µM (inactive) in the assay on NCI-H23.
`Nc1ccc2c(c1)NCCN2`: the GI50 is 7.8 µM (inactive) in the assay with NCI-H226; 18.3 µM (inactive) with K562; 7.64 µM (inactive) with NCI-H522; > 100 µM (inactive) with MDA-MB-231; 14.7 µM (inactive) in the assay with SF-539; > 100 µM (inactive) with RXF 393. Further, the GI50 with ACHN is 6.53 µM (inactive); with HT-29, 42.3 µM (inactive); in the assay on OVCAR-4, > 100 µM (inactive); in the assay with CAKI-1, 12.9 µM (inactive); in the assay with NCI/ADR-RES, > 100 µM (inactive); with UACC-257, 82 µM (inactive). The GI50 in the assay on SF-268 is 56.5 µM (inactive); with HL-60, 9.71 µM (inactive); with Malme-3M, 51.4 µM (inactive); in the assay on EKVX it was 54.1 µM (inactive); in the assay with UACC-62 it was 5.13 µM (inactive); in the assay with NCI-H23 it was 78.9 µM (inactive). In addition, in the assay on OVCAR-3, the GI50 is > 100 µM (inactive).
With `NC(=S)N/N=C/C1NCCC2CCCCC21` (centres undefined), the 50% growth inhibitory concentration (GI50) is 0.314 µM (active) in the assay with NCI-H226; 0.617 µM (active) in the assay with K562; 0.318 µM (active) in the assay on NCI-H522; 1.12 µM (active) with MDA-MB-231; 0.0272 µM (active) in the assay with SF-539; 2.43 µM (inactive) with RXF 393. For the same compound, the GI50 is 0.0134 µM (active) in the assay with ACHN; 2.86 µM (inactive) in the assay on HT-29; 1.73 µM (inactive) in the assay with OVCAR-4; 0.0715 µM (active) with CAKI-1; 0.254 µM (active) in the assay with NCI/ADR-RES; 0.601 µM (active) in the assay on UACC-257. In addition, the GI50 in the assay with SF-268 was 0.313 µM (active); in the assay on HL-60 it was 0.291 µM (active); in the assay with Malme-3M it was 0.254 µM (active); in the assay with EKVX, 0.611 µM (active); with UACC-62, 0.0452 µM (active); with NCI-H23, 0.133 µM (active). The 50% growth inhibitory concentration (GI50) in the assay with OVCAR-3 is 0.312 µM (active).
As for `CSC1SCC2C(=O)N(C)C3(CC3C)C(=O)OCC(NC(=O)c3nc4ccccc4cc3O)C(=O)NC(C)C(=O)N(C)C1C(=O)N(C)C1(CC1C)C(=O)OCC(NC(=O)c1nc3ccccc3cc1O)C(=O)NC(C)C(=O)N2C` (centres undefined), the GI50 with NCI-H226 is < 0.0001 µM (active); with K562, < 0.0001 µM (active); with NCI-H522 it was < 0.01 µM (active); in the assay on MDA-MB-231, < 0.0001 µM (active); in the assay on SF-539, < 0.0001 µM (active); in the assay with RXF 393, < 0.0001 µM (active). Further, the concentration for 50% growth inhibition (GI50) with ACHN is < 0.0001 µM (active); with HT-29, < 0.0001 µM (active); in the assay on OVCAR-4, < 0.0001 µM (active); with CAKI-1 it was 0.000871 µM (active); in the assay with NCI/ADR-RES, 0.176 µM (active); with UACC-257, 0.1 µM (active). In addition, the GI50 was < 0.0001 µM (active) in the assay with SF-268; < 0.0001 µM (active) in the assay with HL-60; < 0.0001 µM (active) in the assay with Malme-3M; 0.1 µM (active) with EKVX; < 0.0001 µM (active) with UACC-62; < 0.0001 µM (active) in the assay on NCI-H23. For the same compound, the concentration for 50% growth inhibition (GI50) in the assay with OVCAR-3 was < 0.0001 µM (active).
Consider `Cc1cc(C)cc(Nc2nnc3n2S(=O)(=O)c2cc(C#N)c(Cl)cc2S3)c1`, for which the GI50 in the assay on NCI-H226 is 10.6 µM (inactive); with K562, 1.47 µM (inactive); in the assay on NCI-H522, 1.87 µM (inactive); in the assay on MDA-MB-231, 3.13 µM (inactive); in the assay with SF-539, 1.89 µM (inactive); in the assay on RXF 393 it was 1.59 µM (inactive). The GI50 in the assay on ACHN is 3.08 µM (inactive); in the assay on HT-29, 1.83 µM (inactive); in the assay with OVCAR-4 it was 7.98 µM (inactive); with CAKI-1, 3.24 µM (inactive); in the assay with NCI/ADR-RES, 2.44 µM (inactive); with UACC-257, 1.44 µM (inactive). For the same compound, the GI50 with SF-268 is 2.2 µM (inactive); in the assay on HL-60, 1.68 µM (inactive); in the assay with Malme-3M, 1.13 µM (inactive); with EKVX, 8.67 µM (inactive); with UACC-62 it was 3.97 µM (inactive); in the assay on NCI-H23, 1.77 µM (inactive). For the same compound, in the assay on OVCAR-3, the GI50 was 1.57 µM (inactive).
As for `CC(NC(=O)C(Cc1ccc([N+](=O)[O-])cc1)NC(=O)C(N)CCCCN)C(=O)NC(Cc1ccc([N+](=O)[O-])cc1)C(N)=O` (centres undefined) (H-K[Phe(4-NO2)]A[Phe(4-NO2)]-NH2; configuration not given here), the GI50 is 98.9 µM (inactive) in the assay on NCI-H226; > 20.5 µM (inactive) with K562; > 30.5 µM (inactive) in the assay on NCI-H522; 39.6 µM (inactive) in the assay with MDA-MB-231; 58.1 µM (inactive) with SF-539; 39.2 µM (inactive) with RXF 393. The GI50 with ACHN is 32.8 µM (inactive); in the assay on HT-29, 20.4 µM (inactive); in the assay with OVCAR-4 it was > 38.6 µM (inactive); in the assay with CAKI-1 it was 47 µM (inactive); in the assay on NCI/ADR-RES it was 69 µM (inactive); in the assay with UACC-257 it was > 68.2 µM (inactive). Also, the GI50 in the assay with SF-268 is > 50 µM (inactive); with HL-60, 18.7 µM (inactive); in the assay with Malme-3M, 50.8 µM (inactive); with EKVX it was > 71.4 µM (inactive); with UACC-62, > 100 µM (inactive); with NCI-H23, 85.3 µM (inactive). Also, the GI50 in the assay with OVCAR-3 was 17.4 µM (inactive).
